Counter-ions that a name gives are not always drawn.
What was measured:
[1] = tested on: surface protein CD184 expression in CD34+HSPCs; assay: Preliminary screening: CD184 mean fluorescence intensity by flow cytometry; type: cell-based, human; conditions: 16 hours treatment, three concentrations
Description: (§1) According to the counting results in Example 1, 5×10^4CD34+ cells were added to each well of a 24-well plate, and the cells were cultured with 1 ml of complete medium per well for 24 hours.
(§2) The next day, the compound was dissolved in DMSO and mixed, and then diluted with PBS to a specific concentration (see Table 3). An equal volume of 10 μl of the diluted compound per well was added to the cell culture medium, mixed well, and placed in an incubator for 16 hours.
(§3) On the third day, an antibody pre-mixed solution was prepared: a solution of PBS+0.5% BSA was pre-mixed with fluorescent antibody BV510 conjugated anti-human CD34 (Biolegend clone 581), FITC conjugated anti-human CD90 (Biolegend, clone 5E10) and APCCy7 conjugated anti-human CD45RA (Biolegend, clone HI100), 50 μl/ml of each antibody was added, and stored in the dark.
(§4) Cells were collected into centrifuge tubes, centrifuged at 400 g for 5 minutes. The supernatant was removed, added with 50 μl of antibody pre-mixed solution (containing 2.5 μl of each antibody) in each sample, resuspended and incubated at 4° C. for 20 minutes in the dark. The cells were washed with 1 ml of PBS added to each tube, centrifuged at 400 g for 5 minutes and resuspended with 50 μl of PBS+0.5% BSA solution. 2.5 μl of PE-conjugated anti-CD184 antibody (Biolegend, clone 12G5) was added to each sample, incubated at 37° C. for 30 minutes, washed, and stained with 7AAD to identify cell viability. Flow cytometry (Beckman Coulter CytoFLEX) was used to detect cell surface fluorescence, and the mean fluorescence intensity (MFI) and positive ratio of CD184 expression in HSPCs and LT-HSCs were analyzed, respectively. Among them, HSPCs are CD34+ cells, and LT-HSCs are CD34+CD90+CD45RA− cells.
(1) Preliminary screening of compounds: 139 compounds were used for preliminary screening, among which 89 compounds were screened in rounds 1-5, and 50 compounds were screened in rounds 6-9. During the in vitro culture of CD34+HSPCs, they were treated for 16 hours by adding three concentrations of compounds to the complete medium. Then the mean fluorescence intensity of surface protein CD184 expression was detected by flow cytometry. 1.

[2] = tested on: NPG (NOD-scid Il2rg−/−) immunodeficient mice; assay: Transplantation of treated human CD34+HSPCs into irradiated NPG mice; type: in vivo, mouse; conditions: 17 weeks after transplantation; for differentiation of treated HSPCs in bone marrow, spleen and peripheral blood: FIG. 5B to 5D; for transplantation efficiency of cells in the bone marrow of NPG mice (hCD45+/(hCD45+ + mCD45+)×100%): HSPCs treated ex vivo, Mock group 64.7%
Description: The transplantation efficiency of hematopoietic stem cells refers to the ability of hematopoietic stem cells from human donor to effectively migrate to the recipient's bone marrow after intravenous injection into the recipient, maintain growth in the bone marrow microenvironment, and play a role in repopulating of the hematopoietic system. To verify the transplantation efficiency of hematopoietic stem cells in the experiment, human hematopoietic stem cells are transplanted into an immune-deficient mouse model, the blood and immune organs of the recipient mice are detected by flow cytometry, and the content of human donor cells (hCD45 positive cell ratio) is analyzed.
Human CD34+HSPCs treated with Colchicine, Vinblastine sulfate or Lexibulin for a short time, or those in the control group were transplanted into NPG (NOD-scid Il2rg−/−) immunodeficient mice irradiated with 1.0 Gy, 8 mice in each group. 17 weeks after transplantation, cell transplantation efficiency in mouse bone marrow, and distribution proportion of human T cells labeled with human CD3, CD4 and CD8 antibodies, myeloid cells labeled with human CD33 antibody, B cells labeled with CD19 antibody, NK cells labeled with human CD56 antibody, and hematopoietic stem and progenitor cells labeled with human CD34 antibody in bone marrow, peripheral blood, and spleen were detected. The results are shown in FIG. 5A to FIG. 5D, where the transplantation efficiency=hCD45^+proportion/(hCD45^+proportion+mCD45^+proportion)×100%

[3] = tested on: surface protein CD184 expression in CD34+HSPCs; assay: Secondary screening: CD184 mean fluorescence intensity, ratio to control group; type: cell-based, human; conditions: high concentration, 16 hours treatment, FIG. 2
Description: as §1, §2, §3, §4
(2) Secondary screening of compounds: the 13 compounds obtained from the preliminary screening were further verified using three concentrations of high, medium and low, with three replicates for each concentration. After 16 hours of treatment with the above-mentioned compounds, the average fluorescence intensity of surface protein CD184 expression was detected by flow cytometry. 2. Wherein, the data in the figure are the ratio of the mean CD184 fluorescence intensity of each group to the control group (Mock). (M344 is the positive control group; Mock is the negative control group untreated during culture.)

COC[C@H]1Cn2cc(-c3nc(Nc4ccnn4C)ncc3C)nc2C(=O)N1Cc1ccc(F)c(F)c1 [AZD0364]
expression of CD184 in CD34+HSPCs (mean fluorescence intensity) [1]: can enhance the expression of CD184

N#Cc1c(NC(=O)c2cccc3ccccc23)sc2c1CCCC2 [JNK-inhibitor IX]
expression of CD184 in CD34+HSPCs (mean fluorescence intensity) [1]: can enhance the expression of CD184

COC(=O)Nc1nc2ccc(C(=O)c3cccs3)cc2[nH]1 [Nocodazole]
expression of CD184 in CD34+HSPCs (mean fluorescence intensity) [1]: can enhance the expression of CD184

Cc1c[nH]c(-c2cnc(NCCNc3ccc(C#N)cn3)nc2-c2ccc(Cl)cc2Cl)n1 [CHIR99021]
expression of CD184 in CD34+HSPCs (mean fluorescence intensity) [1]: can enhance the expression of CD184

O=C(Nc1ccc2[nH]nc(-c3ccncc3)c2c1)[C@@H]1CCN(CC(=O)N2CCN(c3ccc(-c4ncccn4)cc3)CC2)C1 [SCH772984]
expression of CD184 in CD34+HSPCs (mean fluorescence intensity) [1]: can enhance the expression of CD184

O=C(Nc1cccc2cccnc12)c1ccc(N2C(=O)[C@@H]3[C@H](C2=O)[C@@H]2C=C[C@H]3C2)cc1 [IWR-1-endo]
expression of CD184 in CD34+HSPCs (mean fluorescence intensity) [1]: can enhance the expression of CD184

c1cc(-c2cnn3cc(-c4ccc(N5CCNCC5)cc4)cnc23)c2cccnc2c1 [LND-212854]
expression of CD184 in CD34+HSPCs (mean fluorescence intensity) [1]: can enhance the expression of CD184

C/C(=C\c1ccc(C(=O)O)cc1)c1ccc2c(c1)C(C)(C)CCC2(C)C [TTNPB]
expression of CD184 in CD34+HSPCs (mean fluorescence intensity) [1]: can enhance the expression of CD184

O=C(NC[C@H](O)CO)c1ccncc1Nc1ccc(I)cc1F [Pimasertib]
expression of CD184 in CD34+HSPCs (mean fluorescence intensity) [1]: can enhance the expression of CD184

COc1cc2c(c(OC)c1OC)-c1ccc(OC)c(=O)cc1[C@@H](NC(C)=O)CC2 [Colchicine]
differentiation of treated HSPCs in bone marrow, spleen and peripheral blood [2]: can differentiate into T cells, myeloid cells, B cells and NK cells | transplantation efficiency of cells in the bone marrow of NPG mice (hCD45+/(hCD45+ + mCD45+)×100%) [2]: 65.84% | expression of CD184 in CD34+HSPCs (mean fluorescence intensity) [1]: can enhance the expression of CD184 | expression of CD184 relative to negative control (Mock) [3]: 2.6 times | expression of CD184 relative to positive control M344 [3]: comparable effects to M344

CCC[C@H](Nc1nc(-c2ccc(NC(=O)NCC)c(OC)c2)ncc1C)c1cccnc1 [Lexibulin]
differentiation of treated HSPCs in bone marrow, spleen and peripheral blood [2]: can differentiate into T cells, myeloid cells, B cells and NK cells | transplantation efficiency of cells in the bone marrow of NPG mice (hCD45+/(hCD45+ + mCD45+)×100%) [2]: 82.46% | expression of CD184 in CD34+HSPCs (mean fluorescence intensity) [1]: can enhance the expression of CD184 | expression of CD184 relative to positive control M344 [3]: ~2 times

CC[C@]1(O)C[C@@H]2CN(CCc3c([nH]c4ccccc34)[C@@](C(=O)OC)(c3cc4c(cc3OC)N(C)[C@H]3[C@@](O)(C(=O)OC)[C@H](OC(C)=O)[C@]5(CC)C=CCN6CC[C@]43[C@@H]65)C2)C1 [Vinblastine sulfate]
differentiation of treated HSPCs in bone marrow, spleen and peripheral blood [2]: can differentiate into T cells, myeloid cells, B cells and NK cells | transplantation efficiency of cells in the bone marrow of NPG mice (hCD45+/(hCD45+ + mCD45+)×100%) [2]: 80.73% | expression of CD184 in CD34+HSPCs (mean fluorescence intensity) [1]: can enhance the expression of CD184 | expression of CD184 relative to positive control M344 [3]: ~2 times
